# Structures can show the parent of a compound that is named as a salt.
# Legend:
# [1] = Weight loss on drying measured by TGA; assay type: physicochemical; details: for Weight loss, as measured by TGA: general statement in description, hydrobromide
# Protocol: TGA analysis was preformed using Mettler 3M with Mettler TG 50 thermobalance. The weight of the samples was about 10 mg; the samples were scanned at a rate of 10° C./min from 25° C. to 200 or 250° C. The oven was constantly purged with nitrogen gas at a flow rate of 40 ml/min. Standard alumina crucibles covered by lids with 1 hole were used.
# [2] = Water content by Karl Fisher (KF) analysis; assay type: physicochemical; details: for Water content, as measured by KF: general statement in description, hydrobromide
# Source text: As used herein, the term “water content” refers to the content of water based upon the Loss on Drying method (the “LOD” method) as described in UPS 29-NF 24, official Aug. 1, 2006, Physical Test and Determinations, <731> LOSS ON DRYING or in Pharmacopeial Forum, Vol. 24, No. 1, p. 5438 (January-February 1998), the Karl Fisher assay for determining water content or thermogravimetric analysis (TGA). All percentages herein are by weight unless otherwise indicated. As used herein, the term “monohydrate” when used in reference to Rosiglitazone hydrobromide describes Rosiglitazone hydrobromide having water content of between about 3.9-4.1% w/w. As used herein, the term “hemi-hydrate” when used in reference to Rosiglitazone hydrobromide describes Rosiglitazone hydrobromide having a water content of about 1.8-2.1% w/w. As used herein, the term “quarter-hydrate” when used in reference to Rosiglitazone hydrobromide describes Rosiglitazone hydrobromide having a water content of about 0.7-1.0% w/w.
# Water content was determined by Karl Fisher analysis using Mettler Toledo DL 38 Karl Fisher Titrator.
# [3] = Polymorphic stability of Form I in compacted tablet with excipients; assay type: physicochemical; details: compacted with lactose monohydrate, sucrose and avicel
# Source text: Solid pharmaceutical compositions of Form I and the following excipients were compacted into a dosage form like a tablet: lactose monohydrate, sucrose and avicel. The polymorphic stability of Rosiglitazone form I in such tablet was examined and determined to be stable.
# [4] = Crystalline stability of Form I under pressure, grinding and heating (XRD of resulting material)
# [5] = relative humidity 100%
# [6] = 0 % RH, room temperature, 7 days
# [7] = 100 % RH, room temperature, 7 days
# [8] = listed as Rosiglitazone hydrobromide Form I
# [9] = listed as Rosiglitazone hydrobromide Form II
"TGA (weight loss on drying) [1, 6]","TGA (weight loss on drying) [1, 7]",TGA (weight loss on drying) ([1]; As is),"Weight loss, as measured by TGA [1, 8]","KF (water content) [2, 6]","KF (water content) [2, 7]",KF (water content) ([2]; As is),"Water content, as measured by KF [2, 8]","Water content ([2]; relative humidity of about 0%, corresponds to a quarter-hydrate)","Water content ([2]; relative humidity of about 50%, corresponds to a hemihydrate)",Hydrate obtained on maintaining at relative humidity ([2]; relative humidity of about 100%),Polymorphic stability in tablet [3],Stability under extreme heating conditions ([4]; 80° C. for 30 minutes),Stability under high pressure and grinding conditions ([4]; high pressure and grinding),Stability under extreme relative humidity conditions [5],"Weight loss, as measured by TGA [1, 9]","Water content, as measured by KF [2, 9]",Compound
0.7,3.9,4.1,0.7-4.1 % by weight,1%,4.1%,4.1%,1.0-4.1 % by weight,about 1%,about 2%,a monohydrate is obtained,stable,stable,stable,stable,,,"CN(CCOc1ccc(CC2SC(=O)NC2=O)cc1)c1ccccn1 (centres unmarked) [Form I, Rosiglitazone hydrobromide]"
,,,,,,,,,,,,,,,about 3.9 % by weight,about 4.1 % by weight,"CN(CCOc1ccc(CC2SC(=O)NC2=O)cc1)c1ccccn1 (centres unmarked) [Form II, Rosiglitazone hydrobromide]"
